From ChEMBL document CHEMBL1671626, “In vitro profiling of ceftaroline against a collection of recent bacterial clinical isolates from across the United States” (2008)
Converted amounts (≈) assume the structure as drawn.

How the values were obtained:
Type in all cases: functional
[1] = test system: Streptococcus agalactiae; assay: Antibacterial activity against erythromycin-nonsusceptible Streptococcus agalactiae by CLSI M7-A7 broth microdilution method
[2] = test system: Acinetobacter; assay: Antibacterial activity against imipenem-susceptible Acinetobacter by CLSI M7-A7 broth microdilution method
[3] = test system: Citrobacter freundii; assay: Antibacterial activity against ceftazidime-susceptible Citrobacter freundii assessed as resistant isolates by CLSI M7-A7 broth microdilution method
[4] = test system: Morganella morganii; assay: Antibacterial activity against ceftazidime-susceptible Morganella morganii assessed as resistant isolates by CLSI M7-A7 broth microdilution method
[5] = test system: Enterobacteriaceae; assay: Antibacterial activity against ceftazidime-nonsusceptible Enterobacteriaceae by CLSI M7-A7 broth microdilution method
[6] = test system: Acinetobacter; assay: Antibacterial activity against imipenem-susceptible Acinetobacter assessed as resistant isolates by CLSI M7-A7 broth microdilution method
[7] = test system: Providencia sp.; assay: Antibacterial activity against ceftazidime-susceptible Providencia sp. by CLSI M7-A7 broth microdilution method
[8] = test system: Staphylococcus aureus; assay: Antibacterial activity against coagulase-negative and oxacillin-resistant Staphylococcus aureus assessed as resistant isolates by CLSI M7-A7 broth microdilution method
[9] = test system: Enterococcus faecalis; assay: Antibacterial activity against vancomycin-susceptible Enterococcus faecalis by CLSI M7-A7 broth microdilution method
[10] = test system: Morganella morganii; assay: Antibacterial activity against ceftazidime-susceptible Morganella morganii assessed as susceptible isolates by CLSI M7-A7 broth microdilution method
[11] = test system: Enterobacter cloacae; assay: Antibacterial activity against ceftazidime-nonsusceptible Enterobacter cloacae assessed as resistant isolates by CLSI M7-A7 broth microdilution method
[12] = test system: Citrobacter freundii; assay: Antibacterial activity against ceftazidime-susceptible Citrobacter freundii assessed as susceptible isolates by CLSI M7-A7 broth microdilution method
[13] = test system: Streptococcus pneumoniae; assay: Antibacterial activity against penicillin-resistant Streptococcus pneumoniae by CLSI M7-A7 broth microdilution method
[14] = test system: Staphylococcus aureus; assay: Antibacterial activity against methicillin-resistant Staphylococcus aureus assessed as resistant isolates by CLSI M7-A7 broth microdilution method
[15] = test system: Escherichia coli; assay: Antibacterial activity against ceftazidime-nonsusceptible Escherichia coli assessed as susceptible isolates by CLSI M7-A7 broth microdilution method
[16] = test system: Streptococcus pyogenes; assay: Antibacterial activity against erythromycin-susceptible Streptococcus pyogenes by CLSI M7-A7 broth microdilution method
[17] = test system: Enterococcus faecalis; assay: Antibacterial activity against vancomycin-resistant Enterococcus faecalis by CLSI M7-A7 broth microdilution method
[18] = test system: Streptococcus viridans; assay: Antibacterial activity against penicillin-susceptible Streptococcus viridans by CLSI M7-A7 broth microdilution method
[19] = test system: Enterobacter cloacae; assay: Antibacterial activity against ceftazidime-susceptible Enterobacter cloacae assessed as resistant isolates by CLSI M7-A7 broth microdilution method
[20] = test system: Proteus mirabilis; assay: Antibacterial activity against ceftazidime-susceptible Proteus mirabilis assessed as resistant isolates by CLSI M7-A7 broth microdilution method
[21] = test system: Escherichia coli; assay: Antibacterial activity against ceftazidime-nonsusceptible Escherichia coli assessed as resistant isolates by CLSI M7-A7 broth microdilution method
[22] = test system: Moraxella catarrhalis; assay: Antibacterial activity against beta lactamase-positive Moraxella catarrhalis assessed as susceptible isolates by CLSI M7-A7 broth microdilution method
[23] = test system: Enterococcus faecium; assay: Antibacterial activity against vancomycin-resistant Enterococcus faecium by CLSI M7-A7 broth microdilution method
[24] = test system: Providencia sp.; assay: Antibacterial activity against ceftazidime-susceptible Providencia sp. assessed as resistant isolates by CLSI M7-A7 broth microdilution method
[25] = test system: Enterobacter cloacae; assay: Antibacterial activity against ceftazidime-susceptible Enterobacter cloacae assessed as susceptible isolates by CLSI M7-A7 broth microdilution method
[26] = test system: Klebsiella pneumoniae; assay: Antibacterial activity against ceftazidime-susceptible Klebsiella pneumoniae assessed as susceptible isolates by CLSI M7-A7 broth microdilution method
[27] = test system: Serratia marcescens; assay: Antibacterial activity against ceftazidime-susceptible Serratia marcescens assessed as resistant isolates by CLSI M7-A7 broth microdilution method
[28] = test system: Streptococcus viridans; assay: Antibacterial activity against penicillin-nonsusceptible Streptococcus viridans by CLSI M7-A7 broth microdilution method
[29] = test system: Klebsiella pneumoniae; assay: Antibacterial activity against ceftazidime-nonsusceptible Klebsiella pneumoniae by CLSI M7-A7 broth microdilution method
[30] = test system: Staphylococcus aureus; assay: Antibacterial activity against methicillin-susceptible Staphylococcus aureus assessed as susceptible isolates by CLSI M7-A7 broth microdilution method
[31] = test system: Enterobacteriaceae; assay: Antibacterial activity against ceftazidime-nonsusceptible Enterobacteriaceae assessed as resistant isolates by CLSI M7-A7 broth microdilution method
[32] = test system: Escherichia coli; assay: Antibacterial activity against ceftazidime-susceptible Escherichia coli assessed as susceptible isolates by CLSI M7-A7 broth microdilution method
[33] = test system: Moraxella catarrhalis; assay: Antibacterial activity against beta lactamase-positive Moraxella catarrhalis by CLSI M7-A7 broth microdilution method
[34] = test system: Enterobacter cloacae; assay: Antibacterial activity against ceftazidime-nonsusceptible Enterobacter cloacae assessed as susceptible isolates by CLSI M7-A7 broth microdilution method
[35] = test system: Klebsiella pneumoniae; assay: Antibacterial activity against ceftazidime-nonsusceptible Klebsiella pneumoniae assessed as resistant isolates by CLSI M7-A7 broth microdilution method
[36] = test system: Staphylococcus aureus; assay: Antibacterial activity against coagulase-negative and oxacillin-resistant Staphylococcus aureus assessed as susceptible isolates by CLSI M7-A7 broth microdilution method
[37] = test system: Klebsiella pneumoniae; assay: Antibacterial activity against ceftazidime-susceptible Klebsiella pneumoniae by CLSI M7-A7 broth microdilution method
[38] = test system: Haemophilus influenzae; assay: Antibacterial activity against beta lactamase-positive Haemophilus influenzae by CLSI M7-A7 broth microdilution method
[39] = test system: Streptococcus pneumoniae; assay: Antibacterial activity against penicillin-susceptible Streptococcus pneumoniae by CLSI M7-A7 broth microdilution method
[40] = test system: Acinetobacter; assay: Antibacterial activity against imipenem-susceptible Acinetobacter assessed as susceptible isolates by CLSI M7-A7 broth microdilution method
[41] = test system: Escherichia coli; assay: Antibacterial activity against ceftazidime-susceptible Escherichia coli assessed as resistant isolates by CLSI M7-A7 broth microdilution method

For CC(C)(O/N=C(\C(=O)N[C@@H]1C(=O)N2C(C(=O)[O-])=C(C[n+]3ccccc3)CS[C@H]12)c1csc(N)n1)C(=O)O [CEFTAZIDIME], the MIC [1] was no more than 1 µg/mL, the MIC50 [1] was no more than 1 µg/mL and the MIC90 [1] was no more than 1 µg/mL. For the same compound, the MIC50 [2] was 4 µg/mL (≈ 7.32 µM), the MIC90 [2] was greater than 32 µg/mL and the Activity [3] was 0%. It also gave an Activity [4] of 0%, an MIC50 [5] greater than 32 µg/mL and an MIC90 [5] greater than 32 µg/mL. For the same compound, the Activity [6] was 31.9%, the MIC50 [7] was 0.25 µg/mL (≈ 0.457 µM) and the MIC90 [7] was 4 µg/mL (≈ 7.32 µM). For the same compound, the Activity [8] was 66.2%, the MIC [9] was greater than 32 µg/mL and the MIC50 [9] was greater than 32 µg/mL. The MIC90 [9] was greater than 32 µg/mL, the Activity [10] was 100% and the Activity [11] was 91.4%. It also gave an Activity [12] of 100%, an MIC50 [13] of 16 µg/mL (≈ 29.3 µM) and an MIC90 [13] of 32 µg/mL (≈ 58.5 µM). It also gave an Activity [14] of 54%, an Activity [15] of 0% and an MIC [16] of no more than 1 µg/mL. It also gave an MIC50 [16] of no more than 1 µg/mL, an MIC90 [16] of no more than 1 µg/mL and an MIC50 [17] greater than 32 µg/mL. For the same compound, the MIC90 [17] was greater than 32 µg/mL, the MIC [18] was no more than 1 µg/mL and the MIC50 [18] was no more than 1 µg/mL. The MIC90 [18] was 4 µg/mL (≈ 7.32 µM), the Activity [19] was 0% and the Activity [20] was 0%. The Activity [21] was 87.3%, the Activity [22] was 100% and the MIC [23] was greater than 32 µg/mL. The MIC50 [23] was greater than 32 µg/mL, the MIC90 [23] was greater than 32 µg/mL and the Activity [24] was 0%. The Activity [25] was 100%, the Activity [26] was 100% and the Activity [27] was 0%. The MIC50 [28] was 8 µg/mL (≈ 14.6 µM), the MIC90 [28] was greater than 32 µg/mL and the MIC50 [29] was greater than 32 µg/mL. The MIC90 [29] was greater than 32 µg/mL, the Activity [30] was 92% and the Activity [31] was 90%. It also gave an Activity [32] of 100%, an MIC [33] of no more than 1 µg/mL and an MIC50 [33] of no more than 1 µg/mL. The MIC90 [33] was no more than 1 µg/mL, the Activity [34] was 0% and the Activity [35] was 98.5%. It also gave an Activity [36] of 10%, an MIC50 [37] of 0.12 µg/mL (≈ 0.22 µM) and an MIC90 [37] of 0.25 µg/mL (≈ 0.457 µM). For the same compound, the MIC50 [38] was 0.06 µg/mL (≈ 0.11 µM), the MIC90 [38] was 0.12 µg/mL (≈ 0.22 µM) and the MIC [39] was no more than 1 µg/mL. For the same compound, the MIC50 [39] was no more than 1 µg/mL, the MIC90 [39] was no more than 1 µg/mL and the Activity [40] was 63.8%. It also gave an Activity [41] of 0%.
